Data reported in US20140322151A1, “Use Of Isosorbide Caprylates/Caprates In Deodorants And Antiperspirants” (CLARIANT INTERNATIONAL LTD, priority 2011, published 2014).

Tested on: axillary body odor
Experiment: 48-hour sniff test: reduction in body odor after single application of roll-on deodorant base formulation
Assay type: in vivo, human
Settings: base formulation I
Protocol: To determine the reduction in body odor, the following base formulations for roll-on deodorants were used.
Various substances active against body odor were incorporated into the base formulations, for example as a further constituent of component D. These were the following substances:
To determine the reduction in body odor, the deodorizing action was carried out in the 48-hour sniff test, for which the procedure is as follows:
20 subjects are selected according to the following criteria: • female and male • at least 18 years old • nonsmokers • clinically healthy • readily detectable auxiliary body odor under both armpits
The two armpits of the subjects are preconditioned over several days, i.e. no kind of antiperspirants and deodorants are used and a pH-skin-neutral, unperfumed liquid soap is used.
On the 20 pretreated subjects, in the left or right axilla, after a sing application of 250-300 mg of the base formulation comprising active substances against body odor in the component D, three olfactory experts evaluate the axillary body odor and product scent as to intensity before and after treatment over a total of 48 hours.
The opposite axilla is not treated and serves as a standard for determining the relative intensity decrease in axillary body odor compared to the axilla which has been treated with the base formulation comprising active substances against body odor in component D.
As well as the starting value directly before the single application (after 0 hours) and the end value 48 hours after the single application, the intensity of the axillary body odor and product scent is also evaluated after 24 hours. The intensity of the body odor or perfume scent was assessed by the three olfactory experts according to the following scale: • 1=not detectable • 2=slightly detectable • 3=detectable • 4=strongly detectable • 5=very strongly detectable
Comparing the intensities of the body odor (or perfume scent) from the treated axilla and the untreated axilla gives, by virtue of the formula below, the relative intensity decrease in axillary body odor as a result of a single application of 250-300 mg of the base formulation comprising active substances against body odor in component D.

Compound | Result after 24 hours (relative intensity decrease in axillary body odor) (24 hours, 0.1% by weight, 5% by weight propylene glycol as solubilizer) [%] | Result after 48 hours (relative intensity decrease in axillary body odor) (48 hours, 0.1% by weight, 5% by weight propylene glycol as solubilizer) [%] | Result after 24 hours (relative intensity decrease in axillary body odor) (24 hours after single application, 7.6% by weight) [%] | Result after 48 hours (relative intensity decrease in axillary body odor) (48 hours after single application, 7.6% by weight) [%]
Cc1cc(CC(C)CC(C)(C)C)n(O)c(=O)c1 (stereo not shown) [Piroctonol] | 15 | 10 | – | –
CCCCCCC(O)CO (stereo not shown) [octanediol] | – | – | 18 | 13
